Earlier results, collected in patent US10206404B2, “Disinfectant” (Saban Ventures Pty Limited, priority 2012, dated 2019).

Conditions: unbuffered peroxyacetic acid, regardless of how it is produced

Structure (SMILES): CC(=O)OO [peroxyacetic acid]
- pH: around 2.8
